Measured values as given in US10392422B2, “Macrocyclic broad spectrum antibiotics” (priority 2014, dated 2019).
In brackets after ≈: the same amount, converted by molar mass. Where two headings read alike, the source gives them in different places.

What was measured:
Assay in all cases: MIC, broth micro-dilution technique (CLSI)
MRSA COL (NRS100) = assay type: cell-based, Staphylococcus aureus; settings: Staphylococcus aureus, 22 h, read-out: MIC (μg/mL) (COL)
Protocol: (§1) In vitro antimicrobial activity of each compound was determined by measuring minimal inhibitor concentrations (MICs) using the broth micro-dilution technique as approved by the Clinical and Laboratory Standards Institute (CLSI) (Methods for Dilution Antimicrobial Susceptibility Tests for Bacteria that Grow Aerobically; Approved Standard—Eighth Edition. CLSI document M07-A8. Wayne, Pa.: Clinical and Laboratory Standards; 2009). Antibacterial activity was measured against three strains of bacteria: a Methicillin Resistant Staphylococcus aureus strain USA 300 (NRS384); a MRSA COL (NRS100), another Methicillin Resistant Staphylococcus aureus strain; and a strain of Escherichia coli MC4100 harboring the IMP4213, which results in increased outer-membrane permeability (B Martin and Silhavy T. Imp/OstA is required for cell envelope biogenesis in Escherichia coli. (2002) Molecular Microbiology, 45(5), 1289-1302). Cells were inoculated onto plates of Trypyticase Soy Agar or Luria Agar respectively and grown at 35° C. for 20 hours. Inocula suspensions were prepared by scraping cells into 1 ml of testing media (cation adjusted Mueller Hinton Broth supplemented with 0.002% v/v Tween-80) and diluting to a final OD600 nm of 0.01.
(§2) Test compounds were prepared in DMSO at a concentration of 10 mg/ml. These compound stocks were diluted into testing media at a concentration of 64 μg/ml and serial 2-fold dilutions were made in the same media, in 96-well U bottom microtiter dishes, for a total of 10 compound concentrations (Table 1). In modified protocols (Table 2), compound stocks were diluted into testing media at a concentration of 4 μg/mL and serial 2-fold dilutions were made in the same media, in 96-well U bottom microtiter dishes, for a total of 10 compound concentrations. Inocula suspensions were added to the 2-fold serial dilutions of test compounds to a final density of OD OD600 nm of 0.0005 and incubated at 35° C. for 22 hours. […] The results from the protocol starting from a concentration of 64 µg/mL are listed in Table 1 and the results from the modified protocol are shown in Table 2.

[1] = tested on: Escherichia coli MC4100 harboring the IMP4213; assay type: cell-based; settings: Escherichia coli, 22 h, read-out: MIC (μg/mL) E. coli, Table 1 protocol: serial 2-fold dilutions starting from 64 μg/ml; 35° C., 22 hours
Protocol: as §1, §2

[2] = tested on: Methicillin Resistant Staphylococcus aureus strain USA 300 (NRS384); assay type: cell-based; settings: Staphylococcus aureus, 22 h, read-out: MIC (μg/mL) S. aureus
Protocol: as §1, §2

[3] = Table 1 protocol: serial 2-fold dilutions starting from 64 μg/ml, 35° C., 22 hours

SMILES | MIC (MRSA COL (NRS100); [3]) [µg/mL] | MIC [1] [µg/mL] | MIC [2, 3] [µg/mL] | MIC (MRSA COL (NRS100)) [µg/mL] | MIC [2] [µg/mL]
C[C@H](NC(=O)[C@@H]1Cc2ccc(O)c(c2)-c2cc(ccc2O)[C@H](N(C)C(=O)[C@H](CCCCN)NC(=O)c2ccc(-c3ccc(Cl)cc3)cc2)C(=O)N[C@@H](C)C(=O)N1)C(=O)CCc1cc[nH]n1 [Compound 130] | 8 (≈ 8.84 µM) | > 64 | 16 (≈ 17.7 µM) | – | –
C[C@H](NC(=O)[C@@H]1Cc2ccc(O)c(c2)-c2cc(ccc2O)[C@H](N(C)C(=O)[C@H](CCCCN)NC(=O)c2ccc(-c3ccc(Cl)cc3)cc2)C(=O)N[C@@H](C)C(=O)N1)C(=O)CCc1c[nH]cn1 [Compound 132] | 8 (≈ 8.84 µM) | > 64 | 32 (≈ 35.3 µM) | – | –
C[C@H](NC(=O)[C@@H]1Cc2ccc(O)c(c2)-c2cc(ccc2O)[C@H](N(C)C(=O)[C@H](CCCCN)NC(=O)c2ccc(-c3ccc(Cl)cc3)cc2)C(=O)N[C@@H](C)C(=O)N1)B1O[C@@H]2C[C@@H]3C[C@@H](C3(C)C)[C@]2(C)O1 [Compound 133] | – | 2 (≈ 2.08 µM) | – | 1.5 (≈ 1.56 µM) | 2.5 (≈ 2.6 µM)
C[C@@H]1NC(=O)[C@@H](N(C)C(=O)[C@H](CCCCN)NC(=O)c2ccc(-c3ccc(Cl)cc3)cc2)c2ccc(O)c(c2)-c2cc(ccc2O)C[C@@H](C(=O)N[C@@H](C)C(=O)c2nnn[nH]2)NC1=O [Compound 134] | 0.75 (≈ 0.853 µM) | 45 (≈ 51.2 µM) | 2.8 (≈ 3.18 µM) | – | –
C[C@H](NC(=O)[C@@H]1Cc2ccc(O)c(c2)-c2cc(ccc2O)[C@H](N(C)C(=O)[C@H](CCCCN)NC(=O)c2ccc(-c3ccc(Cl)cc3)cc2)C(=O)N[C@@H](C)C(=O)N1)C(=O)N[C@H]1CCNC1=O [Compound 135] | 32 (≈ 35.2 µM) | 64 (≈ 70.4 µM) | > 64 | – | –
C[C@@H]1NC(=O)[C@@H](N(C)C(=O)[C@H](CCCCN)NC(=O)c2ccc(-c3ccc(Cl)cc3)cc2)c2ccc(O)c(c2)-c2cc(ccc2O)C[C@@H](C(=O)N[C@@H](C)C(=O)N(C)[C@H]2CCNC2=O)NC1=O [Compound 136] | 2 (≈ 2.17 µM) | 16 (≈ 17.3 µM) | 8 (≈ 8.66 µM) | – | –
C[C@H](NC(=O)[C@@H]1Cc2ccc(O)c(c2)-c2cc(ccc2O)[C@H](N(C)C(=O)[C@H](CCCCN)NC(=O)c2ccc(-c3ccc(Cl)cc3)cc2)C(=O)N[C@@H](C)C(=O)N1)C(=O)N[C@@H]1CCNC1=O [Compound 137] | 8 (≈ 8.8 µM) | 32 (≈ 35.2 µM) | 32 (≈ 35.2 µM) | – | –
C[C@@H]1NC(=O)[C@@H](N(C)C(=O)[C@H](CCCCN)NC(=O)c2ccc(-c3ccc(Cl)cc3)cc2)c2ccc(O)c(c2)-c2cc(ccc2O)C[C@@H](C(=O)N[C@@H](C)C(=O)N(C)[C@@H]2CCNC2=O)NC1=O [Compound 138] | – | 64 (≈ 69.3 µM) | – | 17 (≈ 18.4 µM) | 32 (≈ 34.7 µM)
COC(=O)C(=O)[C@H](C)NC(=O)[C@@H]1Cc2ccc(O)c(c2)-c2cc(ccc2O)[C@H](N(C)C(=O)[C@H](CCCCN)NC(=O)c2ccc(-c3ccc(Cl)cc3)cc2)C(=O)N[C@@H](C)C(=O)N1 [Compound 139] | – | 8 (≈ 9.2 µM) | – | 4 (≈ 4.6 µM) | 11 (≈ 12.7 µM)
C[C@@H]1NC(=O)[C@@H](N(C)C(=O)[C@H](CCCCN)NC(=O)c2ccc(-c3ccc(Cl)cc3)cc2)c2ccc(O)c(c2)-c2cc(ccc2O)C[C@@H](C(=O)N[C@@H](C)C(=O)C(=O)O)NC1=O [Compound 140] | – | 8 (≈ 9.35 µM) | – | 8 (≈ 9.35 µM) | 23 (≈ 26.9 µM)
C[C@@H]1NC(=O)[C@@H](N(C)C(=O)[C@H](CCCCN)NC(=O)c2ccc(-c3ccc(Cl)cc3)cc2)c2ccc(O)c(c2)-c2cc(ccc2O)C[C@@H](C(=O)N[C@@H](C)C(=O)C(=O)NCc2cc[nH]n2)NC1=O [Compound 141] | 4 (≈ 4.28 µM) | 32 (≈ 34.2 µM) | 8 (≈ 8.56 µM) | – | –
C[C@@H]1NC(=O)[C@@H](N(C)C(=O)[C@H](CCCCN)NC(=O)c2ccc(-c3ccc(Cl)cc3)cc2)c2ccc(O)c(c2)-c2cc(ccc2O)C[C@@H](C(=O)N[C@@H](C)C(=O)C(=O)N[C@@H]2CCNC2=O)NC1=O [Compound 142] | 16 (≈ 17.1 µM) | 16 (≈ 17.1 µM) | 64 (≈ 68.3 µM) | – | –
